Test results: patent publication US12319655B2, “RAF kinase inhibitors and methods of use thereof” (Deciphera Pharmaceuticals, LLC, priority 2021, dated 2025)

test system: Miapaca-2 cells; assay: MiaPaca-2 Combination Cell proliferation Assay (1) with cobimetinib; format: cell-based; details: MiaPaca-2 cell proliferation, read-out: MiaPaca-2 Combo (1) IC50

Structure (SMILES)	IC50 [nM]
CC(=O)Nc1cc(-c2cc(-c3cc(NC(=O)c4ccnc(C(F)(F)F)c4)ccc3C)nc(N(C)C)n2)ccn1 [Example 41, N-(3-(6-(2-acetamidopyridin-4-yl)-2-(dimethylamino)pyrimidin-4-yl)-4-methylphenyl)-2-(trifluoromethyl)isonicotinamide]	≤ 100
Cc1ccc(NC(=O)c2ccnc(C(C)(C)C#N)c2)cc1-c1ccnc(-c2ccnc(NC(=O)CC#N)c2)c1 [Example 63]	100 to 500
Cc1ccc(NC(=O)c2ccnc(C(F)(F)F)c2)cc1-c1ccnc(-c2ccnc(NC(=O)C3CC3)c2)c1 [Example 54]	≤ 100
Cc1ccc(NC(=O)c2ccnc(C(C)(C)C#N)c2)cc1-c1cncc(-c2ccnc3c2CC(=O)N3)n1 [Example 43]	100 to 500
Cc1ccc(NC(=O)c2ccnc(C(F)(F)F)c2)cc1-c1ccnc(-c2ccnc(NC(=O)CC#N)c2)c1 [Example 39, N-(3-(2′-(2-cyanoacetamido)-[2,4′-bipyridin]-4-yl)-4-methylphenyl)-2-(trifluoromethyl)isonicotinamide]	100 to 500
CNC(=O)c1cc(-c2cc(-c3cc(NC(=O)c4ccnc(C(C)(C)C#N)c4)ccc3C)ccn2)ccn1 [Example 50]	≤ 100
CNC(=O)c1cc(-c2cncc(-c3cc(NC(=O)c4ccnc(C(F)(F)F)c4)ccc3C)n2)ccn1 [Example 47]	100 to 500
COCC(=O)Nc1cc(-c2cc(-c3cc(NC(=O)c4ccnc(C(C)(C)C#N)c4)ccc3C)ccn2)ccn1 [Example 61]	≤ 100
CC(=O)Nc1cc(-c2cc(-c3cc(NC(=O)c4ccnc(C(F)(F)F)c4)c(F)cc3C)ccn2)ccn1 [Example 2]	≤ 100
Cc1ccc(NC(=O)c2ccnc(C(F)(F)F)c2)cc1-c1cccc(-c2ccnc(NC(=O)CC#N)c2)c1 [Example 62]	100 to 500
CC(=O)Nc1cc(-c2cc(-c3cc(NC(=O)c4ccnc(C(F)(F)F)c4)ccc3C)cc(OCCO)n2)ccn1 [Example 1, N-(3-(2′-acetamido-6-(2-hydroxyethoxy)-[2,4′-bipyridin]-4-yl)-4-methylphenyl)-2-(trifluoromethyl)isonicotinamide]	≤ 100
CNC(=O)c1cc(-c2cc(-c3cc(NC(=O)c4ccnc(C(F)F)c4)ccc3C)ccn2)ccn1 [Example 48]	≤ 100

Continued, values first:

IC50 [nM]	Structure (SMILES)
≤ 100	CNC(=O)c1cc(-c2cncc(-c3cc(NC(=O)c4ccnc(C(C)(C)C#N)c4)ccc3C)n2)ccn1 [Example 86]
≤ 100	COCC(=O)Nc1cc(-c2nccc(-c3cc(NC(=O)c4ccnc(C(C)(C)C#N)c4)ccc3C)n2)ccn1 [Example 88]
≤ 100	Cc1ccc(NC(=O)c2ccnc(C(C)(C)C#N)c2)cc1-c1cccc(-c2cc(NC(=O)C3CC3)ncn2)c1 [Example 77]
≤ 100	CNC(=O)c1cc(-c2cc(-c3cc(C(=O)Nc4ccnc(C(C)(C)C#N)c4)ccc3C)ccn2)ccn1 [Example 74]
≤ 100	CNC(=O)c1cc(-c2nccc(-c3cc(NC(=O)c4ccnc(C(C)(C)C#N)c4)ccc3C)n2)ccn1 [Example 78]
1000 to 10000	Cc1ccc(NC(=O)c2ccnc(C(C)(C)F)c2)cc1-c1cncc(-c2cc(NC(=O)C3CC3)ncn2)c1 [Example 394]
≤ 100	CC(=O)Nc1cc(-c2cccc(-c3cc(NC(=O)c4ccnc(C(C)(C)C#N)c4)ccc3C)c2)ncn1 [Example 79]
≤ 100	Cc1ccc(NC(=O)c2ccnc(C(F)(F)F)c2)cc1-c1cccc(-c2cc(NC(=O)C3CC3)ncn2)c1 [Example 80]
≤ 100	CCOc1ncc(-c2cc(NC(=O)c3ccnc(C(F)(F)F)c3)ccc2C)cc1-c1ccnc(NC(C)=O)c1 [Example 68]
≤ 100	CC(=O)Nc1cc(-c2cc(-c3cc(NC(=O)c4ccnc(C(C)(C)C#N)c4)ccc3C)nc(C)n2)ccn1 [Example 89]

test system: WM3629 cells; assay: WM3629 Cell Proliferation Assay (1); format: cell-based; details: not given

Structure (SMILES)	IC50 [nM]
Cc1ccc(NC(=O)c2ccnc(C(C)(C)C#N)c2)cc1-c1cccc(-c2cc(NC(=O)C3CC3)ncn2)c1 [Example 77]	≤ 100
CNC(=O)c1cc(-c2cc(-c3cc(NC(=O)c4cccc(C(F)(F)F)c4)cnc3C)ccn2)ccn1 [Example 52]	≤ 100
Cc1ccc(NC(=O)c2ccnc(C3(C#N)CC3)c2)cc1-c1cncc(-c2cc(NC(=O)C3CC3)ncn2)c1 [Example 395]	≤ 100
Cc1ccc(NC(=O)c2ccnc(C(F)(F)F)c2)cc1-c1cncc(-c2cc(NC(=O)C3CC3)ncn2)c1 [Example 397]	≤ 100
Cc1ccc(NC(=O)c2ccnc(C(C)(C)F)c2)cc1-c1cncc(-c2cc(NC(=O)C3CC3)ncn2)c1 [Example 394]	≤ 100
Cc1ccc(NC(=O)c2ccnc(C(F)(F)F)c2)cc1-c1cccc(-c2cc(NC(=O)C3CC3)ncn2)c1 [Example 80]	≤ 100
CCOc1ncc(-c2cc(NC(=O)c3ccnc(C(F)(F)F)c3)ccc2C)cc1-c1ccnc(C(=O)NC)c1 [Example 69]	≤ 100
